Measured values as given in patent publication US11098061B2 (Celgene CAR LLC, priority 2013, dated 2021).

Key:
[1] = tested on: TNFα release; experiment: PO mouse PD experiment (TNFα release after LPS); type: in vivo; settings: CD-1 male mice, 30 mg/kg PO, 1 hour prior to LPS, read-out: % Inhibition of TNFa
Description: CD-1 male mice, approximately 5 weeks old were acquired from Charles River Laboratories. Animals were housed in ventilated cages with a 12/12 light cycle and provided rodent chow and water ad libitum. Mice were acclimated at least 1 week prior to study initiation (approximately 6 weeks old). Five (5) mice per group were predosed at 30 mg/kg PO with one of the following compounds: III-8, III-35, II-27, III-47, III-56, V-39, II-27, III-37, II-e-1, II-e-3, III-40, and V-58 (by oral gavage as a suspension in 0.5% methyl cellulose/0.25% Tween 80 in deionized water), 1 hour prior to LPS administration. LPS (E.Coli 055:B5 from Sigma, Cat #L2880) was diluted in 0.9% sterile saline (Webster Veterinary Supply, Cat #07-883-6734) to a final concentration of 30 μg/mL. Animals were administered 15 μg in 0.5 mL/mouse (approximately 0.5 mg/kg LPS) intraperitoneally. One hour post LPS administration, the mice were sacrificed via CO2 and whole blood was collected by cardiac puncture. Blood was placed in EDTA K2 tubes (Braintree Scientific, Cat #MT-1395), inverted 3 times and placed on wet ice until centrifugation at 4° C. Plasma was collected and stored on dry ice until stored at −80° C. until processing. TNFα levels were quantified using the “Mouse TNF-alpha Ultra-Sensitive Kit” from mesoscale.com (catalog number K152BHC-2) in conjunction with an MSD plate reader.

[2] = tested on: TNFα release; experiment: IV mouse PD experiment (TNFα release after LPS); type: in vivo; settings: CD-1 male mice, less than 10 mg/kg IV, 1 hour prior to LPS
Description: CD-1 male mice, approximately 5 weeks old were acquired from Charles River Laboratories. Animals were housed in ventilated cages with a 12/12 light cycle and provided rodent chow and water ad libitum. Mice were acclimated at least 1 week prior to study initiation (approximately 6 weeks old). Five (5) mice per group were predosed with one of the following compounds: II-14, III-32, III-8, III-4, II-27 and III-40 (intravenously by lateral tail vein), 1 hour prior to LPS administration. LPS (E.Coli 055:B5 from Sigma, Cat #L2880) was diluted in 0.9% sterile saline (Webster Veterinary Supply, Cat #07-883-6734) to a final concentration of 30 μg/mL. Animals were administered 15 μg in 0.5 mL/mouse (approximately 0.5 mg/kg LPS) intraperitoneally. One hour post LPS administration, the mice were sacrificed via CO2 and whole blood was collected by cardiac puncture. Blood was placed in EDTA K2 tubes (Braintree Scientific, Cat #MT-1395), inverted 3 times and placed on wet ice until centrifugation at 4° C. Plasma was collected and stored on dry ice until stored at −80° C. until processing. TNFα levels were quantified using the “Mouse TNF-alpha Ultra-Sensitive Kit” from mesoscale.com (catalog number K152BHC-2) in conjunction with an MSD plate reader.

[3] = molecular target: T1, MK2 (Homo sapiens (Human), UniProt P49137); experiment: MK2 cellular assay (Hsp27 phosphorylation in Thp-1 cells); type: cell-based; settings: differentiated Thp-1 cells, compound 1 hour, 50 ng/ml LPS 15 minutes, phosphorylation of Hsp27; read-out: MK2EC50
T1 sequence (P49137 whole entry): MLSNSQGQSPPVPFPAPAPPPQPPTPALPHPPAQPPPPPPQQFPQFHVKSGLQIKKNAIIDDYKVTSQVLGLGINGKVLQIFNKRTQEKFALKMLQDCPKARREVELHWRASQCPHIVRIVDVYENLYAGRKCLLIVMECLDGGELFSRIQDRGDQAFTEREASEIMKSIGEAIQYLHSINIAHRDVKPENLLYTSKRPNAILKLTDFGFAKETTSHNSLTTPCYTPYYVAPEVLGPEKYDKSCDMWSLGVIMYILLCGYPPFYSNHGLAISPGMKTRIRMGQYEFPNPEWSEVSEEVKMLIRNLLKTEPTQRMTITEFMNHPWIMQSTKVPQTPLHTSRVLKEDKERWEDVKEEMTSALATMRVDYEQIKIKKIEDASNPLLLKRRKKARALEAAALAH
Procedure, shortened: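 PMA-differentiated (10 ng/ml, 2 days) human Thp-1 monocytic cells given compound for 1 h, washed, then stimulated with 50 ng/ml LPS for 15 min. Hsp27 phosphorylation measured by western blot of lysates (20 μg protein); EC50 from dose-response inhibition.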

[4] = molecular target: T1, MK2; experiment: MK2 modification assessment by whole protein mass spectrometry; type: binding; settings: intact MK2, 60 min, 10-fold excess of compound to protein
Procedure, shortened: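 MK2 treated with compound is analysed intact by MALDI-TOF after C4 cleanup in sinapinic acid matrix. Percent modification is the centroid mass shift against control MK2 divided by compound mass.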

[5] = molecular target: p38a activated, mitogen-activated protein kinase-activated protein kinase 2 (MAPKAP-K2 or MK-2) enzyme (Homo sapiens (Human), UniProt P49137); experiment: MK2 Omnia continuous-read kinase assay for compound potency; type: biochemical; settings: [MK-2]=0.4 nM, [ATP]=1.0 mM, [ST3-Sox]=10 μM
p38a activated, mitogen-activated protein kinase-activated protein kinase 2 (MAPKAP-K2 or MK-2) enzyme, sequence (P49137 whole entry): as above
Procedure, shortened: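 Continuous Omnia fluorescence read (λex360/λem485) every 71 s after starting with 0.4 nM MK-2, with 1.0 mM ATP (appKM 8-10 μM) and 10 μM ST3-Sox substrate.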

Compound	EC50 [3]	MK2 Mass Mod [4]	IC50 [5]	inhibition in vivo at 30 mg/kg [1]	reduction in TNFα release compared to untreated control [2]
C=CC(=O)Nc1cc(-c2cc3c(cn2)CCc2c-3[nH]c3c2C(=O)NC2(CC2)C3)ccc1N1CCN(C)CC1 [II-27, N-(2-(4-methylpiperazin-1-yl)-5-(7′-oxo-5′,6′,7′,8′,10′,11′-hexahydrospiro[cyclopropane-1,9′-pyrido[3′,4′:4,5]pyrrolo[2,3-f]isoquinolin]-2′-yl)phenyl)acrylamide]	< 100 nM	E (mass modification of ≥70%)	< 100 nM	≤ 20%	greater than 90%
C=CC(=O)Nc1cc(NC(=O)c2ccc3sc4c(c3c2)NC[C@@H](C)NC4=O)ccc1C1CCN(C)CC1 [III-56, (R)—N-(3-acrylamido-4-(1-methylpiperidin-4-yl)phenyl)-3-methyl-5-oxo-2,3,4,5-tetrahydro-1H-benzo[4,5]thieno[3,2-e][1,4]diazepine-9-carboxamide]				≤ 20%	
C=CC(=O)Nc1cc(-c2cc3c(cn2)CCc2c-3[nH]c3c2C(=O)NCC3)cnc1OCCOC [II-14, N-(2-(2-methoxyethoxy)-5-(7-oxo-6,7,8,9,10,11-hexahydro-5H-pyrido[3′,4′:4,5]pyrrolo[2,3-f]isoquinolin-2-yl)pyridin-3-yl)acrylamide]	< 100 nM	E (mass modification of ≥70%)	< 100 nM		greater than 90%
C=CC(=O)Nc1cccc2oc(-c3ccc4cc5n(c4c3)C3(CCC3)CNC5=O)nc12 [Compound V-39, N-(2-(1′-oxo-2′,3′-dihydro-1′H-spiro[cyclobutane-1,4′-pyrazino [1,2-a]indol]-7′-yl)benzo[d]oxazol-4-yl)acrylamide]	101 to 500 nM	E (mass modification of ≥70%)	101 to 500 nM	≥ 81%	
C=CC(=O)N1c2cc(NC(=O)c3ccc4cc5n(c4c3)C3(CCC3)CNC5=O)ccc2OCC1(C)C [Compound V-58, N-(4-acryloyl-3,3-dimethyl-3,4-dihydro-2H-benzo[b][1,4]oxazin-6-yl)-1′-oxo-2′,3′-dihydro-1′H-spiro[cyclobutane-1,4′-pyrazino [1,2-a]indole]-7′-carboxamide]	< 100 nM	E (mass modification of ≥70%)	< 100 nM	≤ 20%	
C=CC(=O)Nc1cc(-c2cc3c(ccc4c5c([nH]c43)CCC5=O)cn2)ccc1F [II-e-3, N-(2-fluoro-5-(7-oxo-7,8,9,1-tetrahydrocyclopenta[4,5]pyrrolo[2,3-f]isoquinolin-2-yl)phenyl)acrylamide]				≤ 20%	
C=CC(=O)Nc1cccc(-c2cc3c(ccc4c5c([nH]c43)CCC5=O)cn2)c1 [II-e-1, N-(3-(7-oxo-7,8,9,10-tetrahydrocyclopenta[4,5]pyrrolo[2,3-f]isoquinolin-2-yl)phenyl)acrylamide]	501 to 999 nM	E (mass modification of ≥70%)	101 to 500 nM	≤ 20%	

Now from value to compound, other results behind:

EC50 [3]	MK2 Mass Mod [4]	IC50 [5]	Compound	inhibition in vivo at 30 mg/kg [1]	reduction in TNFα release compared to untreated control [2]
< 100 nM	E (mass modification of ≥70%)	< 100 nM	C=CC(=O)Nc1cc(NC(=O)c2ccc3sc4c(c3c2)NC[C@@H](C)NC4=O)ccc1N1CCN(C)CC1 [III-4, (R)—N-(3-acrylamido-4-(4-methylpiperazin-1-yl)phenyl)-3-methyl-5-oxo-2,3,4,5-tetrahydro-1H-benzo[4,5]thieno[3,2-e][1,4]diazepine-9-carboxamide]		greater than 90%
< 100 nM	E (mass modification of ≥70%)	< 100 nM	C=CC(=O)N1CC(C)(C)Oc2ccc(NC(=O)c3ccc4sc5c(c4c3)NC[C@@H](C)NC5=O)cc21 [III-32, (R)—N-(4-acryloyl-2,2-dimethyl-3,4-dihydro-2H-benzo[b][1,4]oxazin-6-yl)-3-methyl-5-oxo-2,3,4,5-tetrahydro-1H-benzo[4,5]thieno[3,2-e][1,4]diazepine-9-carboxamide]		greater than 90%
< 100 nM		< 100 nM	C=CC(=O)Nc1cc(-c2ccc3c(ccc4sc5c(c43)NC[C@@H](C)NC5=O)n2)ccc1OCCN(C)C [III-40, (R)—N-(2-(2-(dimethylamino)ethoxy)-5-(10-methyl-8-oxo-9,10,11,12-tetrahydro-8H-[1,4]diazepino[5′,6′:4,5]thieno[3,2-f]quinolin-3-yl)phenyl)acrylamide]	≤ 20%	greater than 90%
< 100 nM	E (mass modification of ≥70%)	< 100 nM	C=CC(=O)Nc1cc(-c2ccc3c(ccc4sc5c(c43)NC[C@@H](C)NC5=O)n2)ccc1C [III-37, (R)—N-(2-methyl-5-(10-methyl-8-oxo-9,10,11,12-tetrahydro-8H-[1,4]diazepino[5′,6′:4,5]thieno[3,2-f]quinolin-3-yl)phenyl)acrylamide]	≤ 20%	
< 100 nM	E (mass modification of ≥70%)	< 100 nM	C=CC(=O)NC1CCCC1NC(=O)c1ccc2sc3c(c2c1)NC[C@@H](C)NC3=O (some centres unmarked) [III-47]	≤ 20%	
101 to 500 nM	E (mass modification of ≥70%)	< 100 nM	C=CC(=O)Nc1cc(NC(=O)c2ccc3sc4c(c3c2)NC[C@@H](C)NC4=O)ccc1OCCN(C)C [III-35, (R)—N-(3-acrylamido-4-(2-(dimethylamino)ethoxy)phenyl)-3-methyl-5-oxo-2,3,4,5-tetrahydro-1H-benzo[4,5]thieno[3,2-e][1,4]diazepine-9-carboxamide]	≤ 20%	
> 1000 nM	E (mass modification of ≥70%)	< 100 nM	C=CC(=O)Nc1cc(NC(=O)c2ccc3sc4c(c3c2)NC[C@@H](C)NC4=O)ccc1N1CCNCC1 [III-5, (R)—N-(3-acrylamido-4-(piperazin-1-yl)phenyl)-3-methyl-5-oxo-2,3,4,5-tetrahydro-1H-benzo[4,5]thieno[3,2-e][1,4]diazepine-9-carboxamide]		
